The record followed here is US11136301B2, “Broad spectrum antiviral compounds and uses thereof” (The Regents Of The University Of California, priority 2015, dated 2021).

In series [1] the test system is wild-type HIV-1 (HIV-1LAI) in MT-4 cells (permissive). As to the kind of experiment: Antiviral activity assay: wild-type HIV-1 in permissive MT4 cells, reverse transcriptase activity in culture supernatants. The format is cell-based. The conditions noted are these: for viral replication (reverse transcriptase activity in supernatants): MT4 cells, HIV-1LAI, 15 days.
Series [2] concerns HA-tagged A3G and GFP-tagged Vif or ΔVif in 293FT cells. As to the kind of experiment: Immunoblot of A3G and Vif levels in transfected 293FT cells. The note with it: 16 h; for A3G levels / Vif expression: 293FT cells, HA-A3G and GFP-Vif, 50 μM. For orientation: Immunoblotting shows a protein as a band on a membrane.
The test system of series [3] is wild-type HIV-1 (HIV-1LAI) in H9 cells (non-permissive). As to the kind of experiment: microbe, parasite or virus in culture. The series is classed as cell-based. The conditions noted are these: for viral replication (reverse transcriptase activity in supernatants): H9 cells, HIV-1LAI, up to 50 μM, 15 days.
Series [4] concerns Vif-A3G-HSP90-Cul5-CBF-β E3 ligase complex. The series is described as follows: Immunoprecipitation of IMA82-interacting proteins / E3 ligase complex. The format is cell-based. The note with it: 293FT cells transfected with FLAG-HSP90 and HA-A3G, 16 h. Here is the method:
Cells were washed twice with PBS and lysed in IP lysis buffer (Thermo) or in a buffer composed of 50 mM Tris-HCl (pH 7.2), 150 mM NaCl, 1% NP-40, 10% glycerol, and protease inhibitor cocktail. Cell lysates ([…]) were incubated with 5 μl of rat anti-HA (Roche), rabbit anti-GFP (Cell Signaling), mouse anti-Hsp90 (Millipore), or rabbit anti-Cul5 (Sigma) plus 30 μl of protein A or G DYNABEADS® (Invitrogen) and rotated at RT for 2 h. The beads were washed three times with PBS containing 0.05% Tween 20. Each lysate was immunoprecipitated in triplicate and the beads were combined. Immune complexes were eluted by boiling in 5×SDS sample buffer. The proteins were separated by SDS-PAGE and analyzed by immunoblotting with antibodies to HA (A3G), GFP (Vif), Hsp90, Cul5, and CBF-β, as described above.

The test system of series [5] is A3G, Vif, p24, HSP90 in HIV-1LAI-infected H9 and MT4 cells. As to the kind of experiment: Protein analysis (immunoblot) of HIV-1 infected H9 and MT4 cells. The format is cell-based. As for the experimental part:
Non-permissive (H9) and permissive (MT4) cells were treated with 1% DMSO, IMA82, or 17-DMAG overnight and then infected with HIV-1LAI for 5 h. Cells were washed three times with PBS and cultured in medium for 72 h in the presence of the same concentrations of DMSO, IMA82, or 17-DMAG. Total cell lysates were prepared with M-PER buffer containing 0.5% Triton X-100, 150 mM NaCl, 5 mM EDTA, and protease inhibitor cocktail. Protein concentrations were determined with the DC protein assay kit (Bio-Rad). Immunoblotting was performed as described above.

Series [6] relates to polyubiquitination of A3G and Vif. As to the kind of experiment: Ubiquitination assay in 293FT cells. The format is cell-based. As for the experimental part:
Cells were incubated with or without 10 μM of IMA82, IMD55, or IMD64 for 16 h, and then with or without 10 μM of the calpain inhibitor ALLN for 4 h. The cells were washed once with PBS and lysed. Samples of 200 μg protein were immunoprecipitated by the addition of rat anti-HA (Roche) or mouse anti-GFP (Wako) antibodies (7 μg) and 50 μl protein G DYNABEADS® (Invitrogen) and rotated at RT for 2 h. The beads were washed three times with PBS containing 0.05% Tween 20 and boiled in 5×SDS sample buffer. The denatured proteins were resolved and electroblotted onto PVDF membranes. The membranes were probed with rabbit anti-ubiquitin, rabbit anti-HA, or rabbit anti-GFP antibodies, as described above.

For series [7], the system named is HSP90. The series is described as follows: ViTAP (Vif inhibitor Target Affinity Purification): streptavidin affinity purification of compound-bound proteins. The format is binding. The note with it: transfected 293FT cells, streptavidin affinity purification.
Setting [8] is: Human immunodeficiency virus 1, MT4, Table 1, wild-type HIV-1, permissive MT4 cells, read-out: Antiviral activity (IC50 μM) MT4 cells.
Setting [9] is: Human immunodeficiency virus 1, MT4, Table 3, wild-type HIV-1, permissive MT4 cells, read-out: Antiviral activity (IC50 μM) MT4 cells.
Setting [10] is: Human immunodeficiency virus 1, MT4, Table 6, wild-type HIV-1, permissive MT4 cells, read-out: Antiviral activity (IC50 μM) MT4 cells.
Where [11] appears, read: Human immunodeficiency virus 1, MT4, text, permissive MT4 cells, read-out: IC50, non-specific antiviral activity in permissive cells.
Setting [12] is: Human immunodeficiency virus 1, H9, read-out: Antiviral activity (IC50 μM) H9 cells, Table 1, wild-type HIV-1, non-permissive H9 cells.
The mark [13] stands for this setting: Human immunodeficiency virus 1, H9, read-out: Antiviral activity (IC50 μM) H9 cells, Table 3, wild-type HIV-1, non-permissive H9 cells.
The mark [14] stands for this setting: Human immunodeficiency virus 1, H9, read-out: Antiviral activity (IC50 μM) H9 cells, Table 6, wild-type HIV-1, non-permissive H9 cells.
Setting [15] is: Human immunodeficiency virus 1, H9, read-out: IC50, anti-HIV-1 activity, non-permissive H9 cells.
Setting [16] is: 293FT cells expressing HA-A3G and GFP-Vif, 10 μM, ALLN.

Entries after “also recorded” stand apart in the source; their conditions may differ. Counter-ions that a name gives are not always drawn. Like-named read-outs stand apart in the source and are kept apart here.

Broadly, the melting point is the temperature of the solid-liquid transition. As for `COc1ccccc1-n1cc(-c2ccccc2S(=O)(=O)c2ccc(C(=O)O)cc2)nn1` (as salt: salt) [Compound 2gy, 2-Hydroxy-N,N,N-trimethylethanaminium 4-((2-(1-(2-methoxyphenyl)-1H-1,2,3-triazol-4-yl)phenyl)sulfonyl)benzoate], the melting point is 93 °C.

As usually defined, the IC50 is the concentration at which inhibition is half-maximal. `COc1ccccc1-c1nnc(-c2ccccc2Sc2ccc([N+](=O)[O-])cc2)o1` [Compound 1b, 2-(2-Methoxyphenyl)-5-(2-((4-nitrophenyl)thio)phenyl)-1,3,4-oxadiazole]: the melting point is 128 to 130 °C. In addition, the IC50 in series [1] (setting [8]) came out at 50 µM. Moreover, the IC50 in series [1] (setting [9]) came to 50 µM. For the same compound, in series [1] (setting [10]), the IC50 is 50 µM. For the same compound, the IC50 in series [1] (setting [11]) stood at 50 µM. In series [2], the A3G levels entry was “up-regulation of A3G; also recorded: restoring A3G levels” and the Vif expression result is “downregulation of Vif; also recorded: down-regulated Vif expression”. Moreover, the IC50 in series [3] (setting [12]) was found to be 6.8 µM. Also, the IC50 in series [3] (setting [13]) is 6.8 µM. Also, in series [3] (setting [14]), the IC50 was found to be 6.8 µM. Besides, in series [3] (setting [15]), the IC50 was found to be 6.8 µM.

For `COc1ccccc1-c1noc(-c2ccccc2Sc2ccc([N+](=O)[O-])cc2)n1` [Compound 1c, 3-(2-Methoxyphenyl)-5-(2-((4-nitrophenyl)thio)phenyl)-1,2,4-oxadiazole], the melting point came to 138 °C. Further, the 50% inhibitory concentration (IC50) in series [1] (setting [8]) is above 50 µM. The IC50 in series [1] (setting [9]) is above 50 µM. Further, in series [2], the A3G levels entry is recorded as “up-regulation of A3G; also recorded: restoring A3G levels” and the Vif expression result was “downregulation of Vif; also recorded: down-regulated Vif expression”. The IC50 in series [3] (setting [12]) came to 6.8 µM. Further, the IC50 in series [3] (setting [13]) is 6.8 µM. Further, in series [3] (setting [15]), the IC50 stood at 6.8 µM.

`COc1ccccc1-n1cc(-c2ccccc2Sc2ccc([N+](=O)[O-])cc2)nn1` [Compound 1d, 1-(2-Methoxyphenyl)-4-(2-((4-nitrophenyl)thio)phenyl)-1H-1,2,3-triazole] yielded a melting point of 149 to 151 °C. The IC50 in series [1] (setting [8]) is above 50 µM. Moreover, the half-maximal inhibitory concentration (IC50) in series [1] (setting [9]) is above 50 µM. For the same compound, the IC50 in series [1] (setting [10]) was above 50 µM. Also, the IC50 in series [1] (Human immunodeficiency virus 1, MT4, wild-type HIV-1 (HIV-1LAI), MT4 cells (permissive), RT activity in culture supernatants, compounds 1 to 50 μM, read-out: Antiviral activity (IC50 μM) MT4 cells) was above 50 µM. Besides, the “antiviral activity in MT4 cells (specificity)” value in series [1] (permissive MT4 cells, up to 50 μM) was “no activity”. Besides, in series [2], the A3G levels entry is reported as “up-regulation of A3G; also recorded: restoring A3G levels” and the Vif expression entry was “downregulation of Vif; also recorded: down-regulated Vif expression”. In addition, the IC50 in series [3] (setting [12]) was found to be 1.2 µM. Besides, the IC50 in series [3] (setting [13]) turned out to be 1.2 µM. Besides, the IC50 in series [3] (setting [14]) is 1.2 µM. In addition, in series [3] (Human immunodeficiency virus 1, H9, read-out: Antiviral activity (IC50 μM) H9 cells, wild-type HIV-1 (HIV-1LAI), H9 cells (non-permissive), RT activity in culture supernatants, compounds 1 to 50 μM), the IC50 worked out at 1.2 µM. For the same compound, the half-maximal inhibitory concentration (IC50) in series [3] (setting [15]) was determined as 1.2 µM.

In turn, `COc1ccccc1-n1nncc1-c1ccccc1Sc1ccc([N+](=O)[O-])cc1` [Compound 1e, 1-(2-Methoxyphenyl)-5-(2-((4-nitrophenyl)thio)phenyl)-1H-1,2,3-triazole] returned a melting point of 139 to 141 °C. Further, in series [1] (setting [8]), the IC50 turned out to be 25 µM. In series [1] (setting [9]), the IC50 stood at 25 µM. In addition, in series [1] (setting [11]), the IC50 was 25 µM. Further, in series [2], the A3G levels result was “up-regulation of A3G; also recorded: restoring A3G levels” and the Vif expression entry is given as “downregulation of Vif; also recorded: down-regulated Vif expression”. For the same compound, the IC50 in series [3] (setting [12]) was determined as 15 µM. For the same compound, the IC50 in series [3] (setting [13]) is 15 µM. The IC50 in series [3] (setting [15]) is 15 µM.

With `C=CCNC1=C2C[C@@H](C)C[C@H](OC)[C@H](O)[C@@H](C)/C=C(\C)[C@H](OC(N)=O)[C@@H](OC)/C=C\C=C(/C)C(=O)NC(=CC1=O)C2=O` [Compound 17-AAG, 17-N-Allylamino-17-demethoxygeldanamycin, reference compound], in series [2] (293FT cells co-expressing HA-A3G and Vif or ΔVif), the A3G expression result was “dose-dependently decreased A3G expression”. For the same compound, the “Vif expression / degradation” value in series [2] (293FT cells co-expressing HA-A3G and Vif) is on record as “unaffected”. The HSP90 expression result in series [2] (transfected 293FT cells) is given as “no effect on HSP90 levels”. In addition, the “HSP90-A3G interaction, FLAG-HSP90 affinity purification” value in series [4] is “remained in complexes with A3G”. In series [5] (HIV-1-infected H9 cells), the A3G levels result was “dose-dependently decreased the expression of A3G” and the Vif levels result is “without affecting Vif expression”. Besides, the A3G expression result in series [5] (uninfected H9 cells, 16 h) was “decreased”. In series [6] (293FT-A3G-ΔVif cells (lacking Vif)), the A3G ubiquitination entry is recorded as “ubiquitinated”.

Turning to `COc1cc(C(=O)NCCOCCOCCOCCNC(=O)CCCCC2SCC3NC(=O)NC32)ccc1NC(=O)c1ccccc1Sc1ccc([N+](=O)[O-])cc1` (stereo not drawn) [IMD40, 3-methoxy-4-(2-((4-nitrophenyl)thio)benzamido)-N-(13-oxo-17-(2-oxohexahydro-1H-thieno[3,4-d]imidazol-4-yl)-3,6,9-trioxa-12-azaheptadecyl)benzamide], the “viral replication (reverse transcriptase activity in supernatants)” value (“viral replication” below) in series [3] is given as “dose-dependently inhibited viral replication”. The “co-purification of HSP90 (90 kDa protein) with the compound” value (“co-purification of HSP90” for short) in series [7] is given as “binds HSP90; also recorded: purified a specific 90 kDa protein”.

Consider `COc1ccccc1C(=O)NCCOCCOCCOCCNC(=O)CCCCC1SCC2NC(=O)NC21` (stereo not drawn) [IMD41, 2-methoxy-N-(13-oxo-17-(2-oxohexahydro-1H-thieno[3,4-d]imidazol-4-yl)-3,6,9-trioxa-12-azaheptadecyl)benzamide], for which the “viral replication” value in series [1] (up to 50 μM) and in series [3] was “no effect on viral replication” throughout. Moreover, the “co-purification of HSP90” value in series [7] was “did not co-purify”.

Take `COc1cc(C(=O)NCCOCCOCCOCCNC(=O)CCCCC2SCC3NC(=O)NC32)ccc1NC(=O)c1ccc(N=[N+]=[N-])cc1Sc1ccc([N+](=O)[O-])cc1` (stereo not drawn) [IMD55, 4-azido-N-(2-methoxy-4-((13-oxo-17-(2-oxohexahydro-1H-thieno[3,4-d]imidazol-4-yl)-3,6,9-trioxa-12-azaheptadecyl)carbamoyl)phenyl)-2-((4-nitrophenyl)thio)benzamide]: in series [3], the “viral replication” value is on record as “dose-dependently inhibited viral replication”. Moreover, in series [7], the “co-purification of HSP90” value was “co-purified; also recorded: specifically co-purify”. Also, in series [6] (setting [16]), the A3G ubiquitination result is “not observed” and the Vif ubiquitination result is listed as “ubiquitinated”.

For the compound `[N-]=[N+]=Nc1ccc(C(=O)NCCOCCOCCOCCNC(=O)CCCCC2SCC3NC(=O)NC32)cc1` (stereo not drawn) [IMD64, 4-Azido-N-(13-oxo-17-(2-oxohexahydro-1H-thieno[3,4-d]imidazol-4-yl)-3,6,9-trioxa-12-azaheptadecyl)benzamide], the “viral replication” value in series [1] (up to 50 μM) and in series [3] was “no effect on viral replication” throughout. Besides, the “co-purification of HSP90” value in series [7] was “did not associate”. In addition, in series [6] (setting [16]), the A3G ubiquitination entry was “extensively ubiquitinated”.
